Assay results reported in the supplement of paper PMC4862054.
Values joined by “and” are separate entries in the source; they are usually repeats but may differ in a detail not shown here. Equal entries are not always repeated.

Tests used:
MFM-223 [1] = test: drug sensitivity score (DSS), CellTiter-Blue viability (DSS (AUC-based score)); higher = stronger viability inhibition; extreme values may be limits of the assay; settings: incubation time: 72 h
Procedure: (§1)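 DSRT with the CellTiter-Blue (resazurin reduction) viability readout, fluorescence 560/590 nm, 72 h incubation. Plates were normalised to DMSO and benzethonium chloride controls. DSS is computed from the area under the fitted dose-response curve (5 or 9 concentrations).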

BT-549 [2] = test: as above; settings: incubation time: 72 h
Procedure: as §1

CAL-51 [3] = test: normalised viability (% of control), CellTiter-Blue; higher = more viable cells (about 100 = DMSO control); settings: incubation time: 72 h
Summary of the method: (§2)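 Breast cancer cell lines were treated for 72 h in 384-well format and measured by CellTiter-Blue fluorescence at 560/590 nm. Results were normalised per plate to vehicle (100) and a positive kill control (0). The entry is normalised viability at a single listed concentration of the series.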

Hs578T [4] = test: as above; settings: incubation time: 72 h
Summary of the method: as §2

SK-BR-3 [5] = test: as above; settings: incubation time: 72 h
Summary of the method: as §2

MDA-MB-231 [6] = test: as above; settings: incubation time: 72 h
Summary of the method: as §2

MFM-223 [7] = test: as above; settings: incubation time: 72 h
Summary of the method: as §2

HCC1599 [8] = test: as above; settings: incubation time: 72 h
Summary of the method: as §2

DU-4475 [9] = test: as above; settings: incubation time: 72 h
Summary of the method: as §2

CAL-51 [10] = test: normalised viability (% of control), CellTiter-Blue; higher = more viable cells (about 100 = DMSO control); settings: 10 nM; incubation time: 72 h
Procedure: (§3)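 DSRT, CellTiter-Blue viability, 72 h incubation. Signal is normalised to DMSO and benzethonium chloride controls. Value is the normalised response at dose 3.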

HCC1937 = test: as above; settings: 100 nM; incubation time: 72 h
Procedure: as §3

Hs578T [11] = test: as above; settings: 100 nM; incubation time: 72 h
Procedure: as §3

HDQ-P1 = test: as above; settings: 10 nM; incubation time: 72 h
Procedure: as §3

SK-BR-3 [12] = test: as above; settings: 100 nM; incubation time: 72 h
Procedure: as §3

MDA-MB-231 [13] = test: as above; settings: 100 nM; incubation time: 72 h
Procedure: as §3

CAL-148 = test: as above; settings: 10 nM; incubation time: 72 h
Procedure: as §3

CAL-85-1 = test: as above; settings: 10 nM; incubation time: 72 h
Procedure: as §3

BT-474 = test: as above; settings: 100 nM; incubation time: 72 h
Procedure: as §3

MFM-223 [14] = test: as above; settings: 100 nM; incubation time: 72 h
Procedure: as §3

HCC1599 [15] = test: as above; settings: 100 nM; incubation time: 72 h
Procedure: as §3

MDA-MB-468 = test: as above; settings: 100 nM; incubation time: 72 h
Procedure: as §3

HCC1143 = test: as above; settings: 100 nM; incubation time: 72 h
Procedure: as §3

CAL-120 = test: as above; settings: 100 nM; incubation time: 72 h
Procedure: as §3

BT-549 [16] = test: as above; settings: 100 nM; incubation time: 72 h
Procedure: as §3

DU-4475 [17] = test: as above; settings: 10 nM; incubation time: 72 h
Procedure: as §3

MDA-MB-453 = test: as above; settings: 10 nM; incubation time: 72 h
Procedure: as §3

MDA-MB-436 = test: as above; settings: 100 nM; incubation time: 72 h
Procedure: as §3

Cc1c(C(=O)Nc2ccc(N3C[C@@H](C)O[C@@H](C)C3)nc2)cccc1-c1ccc(OC(F)(F)F)cc1 [NVP-LDE225]
Settings | drug sensitivity score | normalised viability [%]
BT-474 | – | 93.3
BT-549 [2] | 0 | –
BT-549 [16] | – | 97
CAL-51 [10] | – | 99.7
CAL-85-1 | – | 102
CAL-120 | – | 99.7
CAL-148 | – | 108
DU-4475 [17] | – | 103
HCC1143 | – | 92.5
HCC1599 [15] | – | 102
HCC1937 | – | 97.2
HDQ-P1 | – | 83.5
Hs578T [11] | – | 72.5
MDA-MB-231 [13] | – | 99
MDA-MB-436 | – | 73.2
MDA-MB-453 | – | 110
MDA-MB-468 | – | 113
MFM-223 [1] | 0 | –
MFM-223 [14] | – | 108
SK-BR-3 [12] | – | 71.1

normalised viability [%]
Settings | CAL-51 [3] | DU-4475 [9] | HCC1599 [8] | Hs578T [4] | MDA-MB-231 [6] | MFM-223 [7] | SK-BR-3 [5]
3 nM | 105 | 105 | – | – | – | – | –
10 nM | – | – | 105 | 118 | 121 | 93.5 | 104
30 nM | 101 | 112 | – | – | – | – | –
100 nM | 101 | 96 | – | – | – | – | –
1000 nM | – | – | 90.5 | 107 | 102 | 93.8 | 102
10000 nM | – | – | 102 | 87 | 82.9 | 88.2 | 111

CO[C@H](C(=O)[C@@H](O)[C@@H](C)O)[C@@H]1Cc2cc3cc(O[C@H]4C[C@@H](O[C@@H]5C[C@@H](O)[C@H](O)[C@@H](C)O5)[C@H](O)[C@@H](C)O4)c(C)c(O)c3c(O)c2C(=O)[C@H]1O[C@H]1C[C@@H](O[C@@H]2C[C@@H](O)[C@@H](O[C@@H]3C[C@](C)(O)[C@H](O)[C@@H](C)O3)[C@@H](C)O2)[C@H](O)[C@@H](C)O1 [Plicamycin]
Settings | drug sensitivity score | normalised viability
BT-474 | – | 73.2% and 72.3%
BT-549 [2] | 27.1 and 27.9 | –
BT-549 [16] | – | 20.2% and 17%
CAL-51 [10] | – | 98.2% and 109%
CAL-85-1 | – | 96.7% and 94.2%
CAL-120 | – | 45% and 34.8%
CAL-148 | – | 82.9% and 99.5%
DU-4475 [17] | – | 88.6% and 110%
HCC1143 | – | 46% and 30.6%
HCC1599 [15] | – | 63% and 52.6%
HCC1937 | – | 48.3% and 41.4%
Hs578T [11] | – | 13% and 6.55%
MDA-MB-231 [13] | – | 34.4% and 28.9%
MDA-MB-436 | – | 30.2% and 23.4%
MDA-MB-453 | – | 111% and 91.1%
MDA-MB-468 | – | 9.16% and 7.26%
MFM-223 [1] | 18.2 and 19 | –
MFM-223 [14] | – | 71.4% and 61.1%
SK-BR-3 [12] | – | 30.8% and 21.9%

normalised viability
Settings | CAL-51 [3] | DU-4475 [9] | HCC1599 [8] | Hs578T [4] | MDA-MB-231 [6] | MFM-223 [7] | SK-BR-3 [5]
3 nM | 99.7% and 119% | 85.1% and 89.9% | – | – | – | – | –
10 nM | – | – | 89.6% and 108% | 100% and 82.1% | 82.1% and 88.4% | 103% and 87.9% | 111% and 88.8%
30 nM | 96.1% and 112% | 88.7% and 83.8% | – | – | – | – | –
100 nM | 62.3% and 61.2% | 1.46% and 0.7% | – | – | – | – | –
1000 nM | – | – | 22.3% and 22.2% | 3.62% and 2.96% | 9.81% and 8.56% | 20.3% and 16.5% | 6.61% and 5.62%
10000 nM | – | – | 15.2% and 19.4% | 2.27% and 1.73% | 8.03% and 7.03% | 9.96% and 7.4% | 4.44% and 5.25%

C[C@@H](C(=O)O)c1ccc(-c2ccccc2)c(F)c1 [Tarenflurbil]
Settings | drug sensitivity score | normalised viability [%]
BT-474 | – | 109
BT-549 [2] | 0 | –
BT-549 [16] | – | 103
CAL-51 [10] | – | 118
CAL-85-1 | – | 91.5
CAL-120 | – | 98.6
CAL-148 | – | 90.2
DU-4475 [17] | – | 114
HCC1143 | – | 98.8
HCC1599 [15] | – | 103
HCC1937 | – | 109
HDQ-P1 | – | 91.8
Hs578T [11] | – | 72.9
MDA-MB-231 [13] | – | 90.8
MDA-MB-436 | – | 122
MDA-MB-453 | – | 99.5
MDA-MB-468 | – | 104
MFM-223 [1] | 0 | –
MFM-223 [14] | – | 101
SK-BR-3 [12] | – | 84.8

normalised viability [%]
Settings | CAL-51 [3] | DU-4475 [9] | HCC1599 [8] | Hs578T [4] | MDA-MB-231 [6] | MFM-223 [7] | SK-BR-3 [5]
3 nM | 118 | 101 | – | – | – | – | –
10 nM | – | – | 94.6 | 97.7 | 97.8 | 93.6 | 99.3
30 nM | 115 | 95.6 | – | – | – | – | –
100 nM | 111 | 108 | – | – | – | – | –
1000 nM | – | – | 118 | 106 | 88.6 | 97.2 | 105
10000 nM | – | – | 106 | 92.6 | 103 | 93.2 | 126

NC(=O)c1cccc2cn(-c3ccc([C@@H]4CCCNC4)cc3)nc12 [MK-4827]
Settings | drug sensitivity score | normalised viability [%]
BT-474 | – | 104
BT-549 [2] | 0 | –
BT-549 [16] | – | 97.1
CAL-51 [10] | – | 110
CAL-85-1 | – | 101
CAL-120 | – | 87.3
CAL-148 | – | 98.5
DU-4475 [17] | – | 90.9
HCC1143 | – | 87.2
HCC1599 [15] | – | 93.8
HCC1937 | – | 72.9
HDQ-P1 | – | 105
Hs578T [11] | – | 92.1
MDA-MB-231 [13] | – | 97.5
MDA-MB-436 | – | 95.1
MDA-MB-453 | – | 91.1
MDA-MB-468 | – | 95
MFM-223 [1] | 0 | –
MFM-223 [14] | – | 90.6
SK-BR-3 [12] | – | 78

normalised viability [%]
Settings | CAL-51 [3] | DU-4475 [9] | HCC1599 [8] | Hs578T [4] | MDA-MB-231 [6] | MFM-223 [7] | SK-BR-3 [5]
3 nM | 112 | 94.8 | – | – | – | – | –
10 nM | – | – | 93.4 | 96.2 | 94 | 92.4 | 95.9
30 nM | 105 | 81.1 | – | – | – | – | –
100 nM | 104 | 85.5 | – | – | – | – | –
1000 nM | – | – | 116 | 93.7 | 90.7 | 96.4 | 95.2
10000 nM | – | – | 93.3 | 80.7 | 62.2 | 111 | 74.9
